Assay results as given in PubChem BioAssay (NCI).
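Each compound was tested at five concentrations against cells in 96-well plates for 48 hours. The concentration for 50% growth inhibition is given as GI50. TGI is the concentration that stops growth completely.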

Tests used:
Assay in all cases: DTP human tumour cell line panel, 48 h; in the data active means GI50 below about 0.43 µM; inactive means the rest
NCI-H460 lung = system: NCI-H460 lung
A498 renal = system: A498 renal
RPMI-8226 leukemia = system: RPMI-8226 leukemia
PC-3 prostate = system: PC-3 prostate
HOP-62 NSCLC = system: HOP-62 NSCLC
786-0 renal = system: 786-0 renal
HT29 colon = system: HT29 colon
OVCAR-4 ovarian = system: OVCAR-4 ovarian
KM12 colon = system: KM12 colon
OVCAR-3 ovarian = system: OVCAR-3 ovarian
BT-549 breast = system: BT-549 breast
SF-268 CNS = system: SF-268 CNS
NCI-H23 lung = system: NCI-H23 lung
NCI/ADR-RES ovarian = system: NCI/ADR-RES ovarian
T-47D breast = system: T-47D breast
NCI-H226 lung = system: NCI-H226 lung
CAKI-1 renal = system: CAKI-1 renal
MDA-MB-231 breast = system: MDA-MB-231 breast
ACHN renal = system: ACHN renal
SK-MEL-28 melanoma = system: SK-MEL-28 melanoma
M14 melanoma = system: M14 melanoma
SK-OV-3 ovarian = system: SK-OV-3 ovarian
OVCAR-8 ovarian = system: OVCAR-8 ovarian
SNB-19 CNS = system: SNB-19 CNS
RXF 393 renal = system: RXF 393 renal
SF-295 CNS = system: SF-295 CNS
SR leukemia = system: SR leukemia
SN12C renal = system: SN12C renal
MDA-MB-435 = system: MDA-MB-435
LOX IMVI melanoma = system: LOX IMVI melanoma
UACC-62 melanoma = system: UACC-62 melanoma
A549 NSCLC = system: A549 NSCLC
IGROV1 ovarian = system: IGROV1 ovarian
DU-145 prostate = system: DU-145 prostate
SK-MEL-2 melanoma = system: SK-MEL-2 melanoma
HCC-2998 colon = system: HCC-2998 colon
HS 578T breast = system: HS 578T breast
NCI-H522 lung = system: NCI-H522 lung
HL-60(TB) leukemia = system: HL-60(TB) leukemia
EKVX NSCLC = system: EKVX NSCLC
U251 CNS = system: U251 CNS
CCRF-CEM leukemia = system: CCRF-CEM leukemia
MALME-3M melanoma = system: MALME-3M melanoma
SK-MEL-5 melanoma = system: SK-MEL-5 melanoma
HCT-15 colon = system: HCT-15 colon
MCF7 breast = system: MCF7 breast
TK-10 renal = system: TK-10 renal
K-562 leukemia = system: K-562 leukemia
COLO 205 colon = system: COLO 205 colon
SW-620 colon = system: SW-620 colon
HCT-116 colon = system: HCT-116 colon
SF-539 CNS = system: SF-539 CNS
OVCAR-5 ovarian = system: OVCAR-5 ovarian
UACC-257 melanoma = system: UACC-257 melanoma
MOLT-4 leukemia = system: MOLT-4 leukemia
HOP-92 NSCLC = system: HOP-92 NSCLC
SNB-75 CNS = system: SNB-75 CNS
UO-31 renal = system: UO-31 renal

C[n+]1c2ccccc2c(N=[N+]=[N-])c2ccccc21
7.63 µM: TGI (LOX IMVI melanoma)
> 10 µM: TGI (NCI-H460 lung) | TGI (A498 renal) | TGI (RPMI-8226 leukemia) | TGI (PC-3 prostate) | TGI (HOP-62 NSCLC) | TGI (786-0 renal) | TGI (HT29 colon) | TGI (OVCAR-4 ovarian) | TGI (KM12 colon) | TGI (OVCAR-3 ovarian) | TGI (BT-549 breast) | TGI (SF-268 CNS) | TGI (NCI-H23 lung) | TGI (NCI/ADR-RES ovarian) | TGI (T-47D breast) | TGI (NCI-H226 lung) | TGI (CAKI-1 renal) | TGI (MDA-MB-231 breast) | TGI (ACHN renal) | TGI (SK-MEL-28 melanoma) | TGI (M14 melanoma) | TGI (SK-OV-3 ovarian) | TGI (OVCAR-8 ovarian) | TGI (SNB-19 CNS) | TGI (RXF 393 renal) | TGI (SF-295 CNS) | TGI (SR leukemia) | TGI (SN12C renal) | TGI (MDA-MB-435) | TGI (UACC-62 melanoma) | TGI (A549 NSCLC) | TGI (IGROV1 ovarian) | TGI (DU-145 prostate) | TGI (SK-MEL-2 melanoma) | TGI (HCC-2998 colon) | TGI (HS 578T breast) | TGI (NCI-H522 lung) | TGI (HL-60(TB) leukemia) | TGI (EKVX NSCLC) | TGI (U251 CNS) | TGI (CCRF-CEM leukemia) | TGI (MALME-3M melanoma) | TGI (SK-MEL-5 melanoma) | TGI (HCT-15 colon) | TGI (MCF7 breast) | TGI (TK-10 renal) | TGI (K-562 leukemia) | TGI (COLO 205 colon) | TGI (SW-620 colon) | TGI (HCT-116 colon) | TGI (SF-539 CNS) | TGI (OVCAR-5 ovarian) | TGI (UACC-257 melanoma) | TGI (MOLT-4 leukemia)

O=C1OC2(c3ccc(O)cc3Oc3cc(O)ccc32)c2cccc3cccc1c23
52.6 µM: TGI (HCT-15 colon)
44 µM: TGI (ACHN renal)
42.5 µM: TGI (UACC-62 melanoma)
inactive: GI50 (NCI-H460 lung) 23.1 µM | GI50 (A498 renal) 24.8 µM | GI50 (RPMI-8226 leukemia) 21.5 µM | GI50 (PC-3 prostate) 36.2 µM | GI50 (HOP-62 NSCLC) 17 µM | GI50 (786-0 renal) 27 µM | GI50 (HT29 colon) 21 µM | GI50 (OVCAR-4 ovarian) 16.1 µM | GI50 (KM12 colon) 23.2 µM | GI50 (BT-549 breast) 21.6 µM | GI50 (SF-268 CNS) 29.5 µM | GI50 (NCI-H23 lung) 20 µM | GI50 (HOP-92 NSCLC) 19 µM | GI50 (NCI/ADR-RES ovarian) 31.7 µM | GI50 (T-47D breast) 28.6 µM | GI50 (NCI-H226 lung) 16.1 µM | GI50 (CAKI-1 renal) 24.6 µM | GI50 (MDA-MB-231 breast) 14.3 µM | GI50 (ACHN renal) 16.7 µM | GI50 (SK-MEL-28 melanoma) 17.2 µM | GI50 (M14 melanoma) 22.3 µM | GI50 (SK-OV-3 ovarian) 34 µM | GI50 (OVCAR-8 ovarian) 17.4 µM | GI50 (SNB-19 CNS) 17.5 µM | GI50 (RXF 393 renal) 13.8 µM | GI50 (SF-295 CNS) 32.3 µM | GI50 (SNB-75 CNS) 12.3 µM | GI50 (SR leukemia) 27.5 µM | GI50 (SN12C renal) 22.1 µM | GI50 (MDA-MB-435) 19.1 µM | GI50 (LOX IMVI melanoma) 18.1 µM | GI50 (UACC-62 melanoma) 17.3 µM | GI50 (A549 NSCLC) 19.7 µM | GI50 (IGROV1 ovarian) 19.1 µM | GI50 (DU-145 prostate) 18.9 µM | GI50 (SK-MEL-2 melanoma) 21.4 µM | GI50 (HCC-2998 colon) 48.4 µM | GI50 (HS 578T breast) 22.2 µM | GI50 (NCI-H522 lung) 17.5 µM | GI50 (HL-60(TB) leukemia) 30.6 µM | GI50 (UO-31 renal) 17.1 µM | GI50 (U251 CNS) 18.1 µM | GI50 (CCRF-CEM leukemia) 26.5 µM | GI50 (MALME-3M melanoma) 20.5 µM | GI50 (SK-MEL-5 melanoma) 14.6 µM | GI50 (HCT-15 colon) 19.2 µM | GI50 (MCF7 breast) 19.9 µM | GI50 (TK-10 renal) 27.4 µM | GI50 (K-562 leukemia) 33.2 µM | GI50 (COLO 205 colon) 17.2 µM | GI50 (SW-620 colon) 16.5 µM | GI50 (HCT-116 colon) 22.4 µM | GI50 (SF-539 CNS) 18.7 µM | GI50 (OVCAR-5 ovarian) 17.2 µM | GI50 (UACC-257 melanoma) 23.6 µM | GI50 (MOLT-4 leukemia) 31.6 µM
26.9 µM: TGI (RXF 393 renal)
33.2 µM: TGI (COLO 205 colon)
81.3 µM: TGI (786-0 renal)
52.1 µM: TGI (NCI-H226 lung)
61.4 µM: TGI (NCI-H460 lung)
56.3 µM: TGI (RPMI-8226 leukemia)
82.9 µM: TGI (SN12C renal)
49.9 µM: TGI (NCI-H23 lung)
34.4 µM: TGI (OVCAR-4 ovarian)
58.1 µM: TGI (TK-10 renal)
91.3 µM: TGI (MCF7 breast)
33.9 µM: TGI (HOP-62 NSCLC)
38 µM: TGI (MDA-MB-435)
57.4 µM: TGI (IGROV1 ovarian)
81.6 µM: TGI (HL-60(TB) leukemia)
39.8 µM: TGI (A549 NSCLC)
48 µM: TGI (SK-MEL-2 melanoma)
34.1 µM: TGI (SNB-19 CNS)
36 µM: TGI (LOX IMVI melanoma)
43.7 µM: TGI (NCI-H522 lung)
47.4 µM: TGI (HT29 colon)
99.6 µM: TGI (T-47D breast)
36.9 µM: TGI (OVCAR-8 ovarian) | TGI (DU-145 prostate)
43.4 µM: TGI (SNB-75 CNS) | TGI (SF-539 CNS)
56.7 µM: TGI (M14 melanoma)
97.6 µM: TGI (HOP-92 NSCLC)
62.7 µM: TGI (BT-549 breast)
40.3 µM: TGI (MDA-MB-231 breast)
> 100 µM: TGI (PC-3 prostate) | TGI (SF-268 CNS) | TGI (NCI/ADR-RES ovarian) | TGI (CAKI-1 renal) | TGI (SK-OV-3 ovarian) | TGI (SF-295 CNS) | TGI (SR leukemia) | TGI (HCC-2998 colon) | TGI (HS 578T breast) | TGI (UO-31 renal) | TGI (CCRF-CEM leukemia) | TGI (K-562 leukemia) | TGI (HCT-116 colon) | TGI (MOLT-4 leukemia)
34.3 µM: TGI (SK-MEL-28 melanoma)
70.1 µM: TGI (A498 renal)
40.7 µM: TGI (OVCAR-5 ovarian)
28 µM: TGI (SK-MEL-5 melanoma)
57.8 µM: TGI (KM12 colon)
67.2 µM: TGI (UACC-257 melanoma)
54.7 µM: TGI (MALME-3M melanoma)
39.3 µM: TGI (U251 CNS)
42.7 µM: TGI (SW-620 colon)
